In a melting point compilation (Tetko et al.; mined from patent text by program, amines drawn as free bases though some values may be those of a salt) one finds melting point data, which are given here for 37 compounds.

Usually melting point stands for the temperature, or range, at which the solid turns liquid.

Turning to `Cc1ccc(O)c2c1CCC2=NO`, the melting point was in the range of 148 to 150 °C.

The compound `COCc1cc([N+](=O)[O-])ccc1C` came in with a melting point of 45 to 49 °C.

`CCOC(=O)C(=O)Nc1cc(Cl)c(Cl)c(Cl)c1[N+](=O)[O-]` registered a melting point of 84 °C. Next, `COc1ccc2c(c1OC)CCC1=C2CCC(=O)N1`: 231 °C; `CSc1ccc(NC(=O)CCCCCSc2nc3ccccc3o2)c(SC)n1`: 125 to 126 °C; `COc1cc(NC(C)=O)c(Cl)cc1C(=O)NN1CCN(CCC(C)C)CC1`: 128 to 130 °C.

In turn, `CC(C)(C)C(=O)C(Cc1ccc(Cl)cc1)n1cncn1` (configuration not stated) yielded a melting point of 124 °C. Next, `CC1CCCN(S(=O)(=O)c2cc(Cl)cc(C(=O)O)c2)C1` (configuration not stated): 177 to 179 °C; `CC(C)N(CCCC(=NNC(N)=S)c1ccccc1)C(=O)c1ccccc1`: 107 to 109 °C; `Cc1sc(C)c2c1CCC=C2c1cn(C(c2ccccc2)(c2ccccc2)c2ccccc2)cn1`: 205 to 207 °C. Next, `COC(=O)c1cc(N)c(Cl)c(N)c1`: 110 to 120 °C. For `CCc1c2c(c(C)[nH]c1=O)CC(c1ccccn1)CC2` (configuration not stated), the melting point stood at 300 °C. Next, `Cc1cc2nc(SCC(F)(F)F)[nH]c2cc1C`: 150 to 163 °C.

For the compound `OCCOCCNc1nc(-n2ccnc2)nc2ccc(CO)cc12`, the melting point turned out to be 183 °C.

As for `Cn1c(-c2ccc(-c3cncs3)cc2)cnc1[C@H](Cc1ccccn1)N(C=O)c1cc2cc(Cl)ccc2o1`, the melting point is 165 to 167 °C. The compound `Cc1cc(Cl)nn2cnnc12` came in with a melting point of 134 to 136 °C. Compound `OCc1ccc(N2CCN(Cc3ccc4ccccc4n3)CC2)cc1` registered a melting point of 126 to 127 °C.

In turn, `O=C(c1ccccc1)c1cc(Cl)cc2c1S(=O)CC2C(=O)O` (configuration not stated) came in with a melting point of 172 to 174 °C. Next, `COc1cc(C#N)ccc1C(Br)Br`: 78 to 79 °C; `O=C1N(CCCl)CCN1C1CCCCC1`: 60 to 64 °C. Next, `COC(=O)COC(=O)Cc1cc(Oc2ccc(C(F)(F)F)cc2Cl)ccc1[N+](=O)[O-]`: 79.2 to 80.1 °C; `CN1CC(CCn2ccnc2)Oc2ncccc2C1=O` (configuration not stated): 150 to 152 °C; `CC(C)(C)OC(=O)n1nc2nc3n(c(=O)c2c1N)CCS3`: > 300 °C. In turn, `Cc1oncc1C(=O)c1ccccc1[N+](=O)[O-]` displayed a melting point of 104 to 106 °C.

The compound `CCN(C(=O)N1CCN(c2cc(OC)cc(OC)c2)CC1)c1nc(C)c(C)nc1OC` yielded a melting point of 78 to 80 °C. Next, `Cc1nc(OC(C)C)nc(C)c1N1CCCn2c1nc1c(Cl)ccc(C(OC(F)F)C(F)(F)F)c12` (configuration not stated): 227 to 230 °C; `COC(=O)CC1(c2c(C)c(OC)c(C)c(C)c2OC)C=CC2=NCOC2=C1` (configuration not stated): 68 to 69 °C; `COc1cc2c3ccc(OC)c(OC)c3n(Cc3ccc(Br)cc3)c2cc1OC`: 143 to 144 °C. Next, `CC(=O)OCC(C)(C(=O)OC(C)(C)C)C(=O)c1ccccc1` (configuration not stated): 95 to 97 °C; `CCCCc1nc2cccc(C(=O)NC(C)C)c2n1Cc1ccc(-c2ccccc2-c2nnn[nH]2)cc1`: 247 to 249 °C.

`CC1(C)COC(=O)N1Br` yielded a melting point of 118 to 120 °C. Next, `CN(C(=O)N1CC(C)(c2ccccc2)C(c2ccc(Cl)cc2)=N1)c1ccc(Cl)cc1` (configuration not stated): 132 to 135 °C; `N#Cc1cc(-c2ccc(Cl)cc2Cl)c[nH]c1=O`: > 260 °C. Next, `CCCCSC(=NC(C)=O)Nc1c(Cl)cccc1Cl`: 84 to 89 °C. Next, `Cc1ccc(Cc2cnc(NCCCN(Cc3cccc(Cl)c3)c3ccccn3)[nH]c2=O)cn1`: 100 to 104 °C. In turn, `O=C1CC2Cc3cc(N4CCCCC4)ccc3C2=NN1` (configuration not stated) yielded a melting point of 252 to 254 °C.

`Oc1cccnc1SCc1ccccc1` yielded a melting point of 103 to 104 °C.
